The values below come from US20190365680A1, “USE OF EP4 RECEPTOR ANTAGONISTS FOR THE TREATMENT OF NASH-ASSOCIATED LIVER CANCER” (AskAt Inc., priority 2016, published 2019).

Each structure is given as a SMILES string.

In data set [1] the test system is obesity-induced NASH-associated liver cancer. In words: Obesity-induced (DMBA + high fat diet) NASH-associated mouse liver cancer model: liver tumor development. In kind it is in vivo. The protocol:
FIG. 1 depicts a mouse model timeline developed by treating with 7,12-dimethylbenz(a)anthracene (“DMBA”), and by feeding with a high fat diet (HFD). Compound A was administered to the mice every day from 19 weeks of age to 30 weeks of age and then euthanized (“Eut”).
FIG. 2 is macroscopic photographs of the liver isolated from the vehicle-treated mice (left side) and Compound A-treated mice (right side). […] Compound A or a vehicle (n=5, each) were treated to the mice every day from 19 weeks of age to 30 weeks of age. Arrowheads identify hepatocellular carcinomas (HCCs).
FIG. 3 depicts the average liver tumor numbers and the relative size distribution (classified as >6 mm, 2-6 mm, ≤2 mm). “NS” means not significant.
C57/BL6 mice were purchased from CLEA Japan Inc. The Tlr2^−/− mice (C57/BL6) were purchased from Oriental Yeast Co. Ltd.
Hematoxylin and eosin staining and immunofluorescence analysis were performed as previously described (Yoshimoto et al., Nature, 2013, 499:97-101).
P values less than 0.05 were considered significant. “NS” indicates not significant.
(§1) This mouse model was developed by treating with DMBA, 7,12-dimethylbenz(a)anthracene, and by feeding a high fat diet (HFD) (NPL 15). […] In this experiment, Compound A 30 mg/kg QD was administered to the mice every day from 19 weeks of age to 30 weeks of age (FIG. 1). As a control, a separate group of mice were treated only with a vehicle and no active ingredient.

A short description of data set [2]: Body weight in the NASH-associated mouse liver cancer model. In kind it is in vivo. The conditions noted are these: 30 mg/kg QD from 19 to 30 weeks of age; weight at the age of 30 weeks. On the procedure: FIG. 4 depicts the average body weight of the vehicle-treated group and Compound A-treated group at the age of 30 weeks. Data are represented as means ±SD.
as §1

In data set [3] the test system is immune cells obtained from mouse livers. The conditions noted are these: liver; 30 mg/kg QD from 19 to 30 weeks of age; vs vehicle. On the procedure: FIG. 5A depicts flow cytometry analysis of immune cells between vehicle-treated mice or Compound A-treated mice. The percentages of total CD11c^hi MHC class II (MHC II)^hi, CD11b^+ CD11c^hi MHC II^hi, or CD103^+ CD11c^hi MHC II^hi cells were analyzed by flow cytometry. Data are represented as means ±SEM.
FIG. 6A depicts the percentages of CD3^+ CD4^+ Foxp3^+, CD3^+ CD4^+ Foxp3^−, CD3^+ CD8^+ cells analyzed by flow cytometry. The ratio of CD8^+ T cells to CD4^+ Foxp3^+ Tregs was calculated. Data are represented as means ±SEM. NS=not significant, *p<0.05, **p<0.01.
In FIG. 7A, the percentages of CD69^+ CD8^+ cells were analyzed by flow cytometry (*p<0.05, **p<0.01).
In FIG. 8A, the percentages of PD-1^+ CD8^+ cells were analyzed by flow cytometry (*p<0.05, **p<0.01).
Immune cells were obtained from mouse livers and were subjected to measuring cytokine production and flow cytometric analysis.
Data were analyzed by unpaired t-test with Welch correction (two-side) or Man-Whitney test (two-side). P values less than 0.05 were considered significant. “NS” indicates not significant.
The impact of EP4 blockage on the prevalence and activation status of immune cells was assessed.

As to `C[C@H](NC(=O)c1cc(Cl)cnc1Oc1cccc(F)c1)c1ccc(C(=O)O)cc1` [Compound A, 4-[(1S)-1-({[5-chloro-2-(3-fluorophenoxy)pyridin-3-yl]carbonyl}amino)ethyl]-benzoic acid], in data set [1] (C57/BL6 mice, DMBA + HFD, 30 mg/kg QD every day from 19 to 30 weeks of age), the “Hepatocellular carcinoma (HCC) development compared to vehicle-treated mice” value was “strongly reduced”. For the same compound, in data set [1] (DMBA + HFD mice, treated every day from 19 to 30 weeks of age), the “Tumor colony sized more than 6 mm” value is “completely disappeared”. Further, the “tumor number in the liver compared to vehicle-treated mice” value in data set [1] (DMBA + HFD mice, treated every day from 19 to 30 weeks of age, n=5) is recorded as “significantly inhibited”. For the same compound, the body weight result in data set [2] was “did not influence”. In addition, in data set [3], the “frequency of CD4+Foxp3+ regulatory T cells (Tregs)” value is “significantly reduced”, the “frequency of CD8+ T cells” value is listed as “not changed”, the “frequency of CD11b+ DCs” value is recorded as “not changed” and the “frequency of CD11chi MHC class IIhi dendritic cells (DCs)” value is “not changed”. In data set [3], the “number of CD8+ T cells expressing programmed cell death-1 (PD-1)” value is given as “significantly reduced”, the “number of CD8+ T cells expressing the activation marker CD69” value is “significantly increased”, the “population of CD103+ DCs” value is “increased” and the “ratio of CD8+ T cells to Tregs” value is given as “increased”.
